Reference: patent US20260042762A1 (Kymera Therapeutics, Inc., priority 2018, published 2026)

Target: T1, MerTK (Homo sapiens, UniProt Q12866)
T1 construct: endogenous in cells; host or cells: Jurkat cells
T1 sequence (Q12866 21-999): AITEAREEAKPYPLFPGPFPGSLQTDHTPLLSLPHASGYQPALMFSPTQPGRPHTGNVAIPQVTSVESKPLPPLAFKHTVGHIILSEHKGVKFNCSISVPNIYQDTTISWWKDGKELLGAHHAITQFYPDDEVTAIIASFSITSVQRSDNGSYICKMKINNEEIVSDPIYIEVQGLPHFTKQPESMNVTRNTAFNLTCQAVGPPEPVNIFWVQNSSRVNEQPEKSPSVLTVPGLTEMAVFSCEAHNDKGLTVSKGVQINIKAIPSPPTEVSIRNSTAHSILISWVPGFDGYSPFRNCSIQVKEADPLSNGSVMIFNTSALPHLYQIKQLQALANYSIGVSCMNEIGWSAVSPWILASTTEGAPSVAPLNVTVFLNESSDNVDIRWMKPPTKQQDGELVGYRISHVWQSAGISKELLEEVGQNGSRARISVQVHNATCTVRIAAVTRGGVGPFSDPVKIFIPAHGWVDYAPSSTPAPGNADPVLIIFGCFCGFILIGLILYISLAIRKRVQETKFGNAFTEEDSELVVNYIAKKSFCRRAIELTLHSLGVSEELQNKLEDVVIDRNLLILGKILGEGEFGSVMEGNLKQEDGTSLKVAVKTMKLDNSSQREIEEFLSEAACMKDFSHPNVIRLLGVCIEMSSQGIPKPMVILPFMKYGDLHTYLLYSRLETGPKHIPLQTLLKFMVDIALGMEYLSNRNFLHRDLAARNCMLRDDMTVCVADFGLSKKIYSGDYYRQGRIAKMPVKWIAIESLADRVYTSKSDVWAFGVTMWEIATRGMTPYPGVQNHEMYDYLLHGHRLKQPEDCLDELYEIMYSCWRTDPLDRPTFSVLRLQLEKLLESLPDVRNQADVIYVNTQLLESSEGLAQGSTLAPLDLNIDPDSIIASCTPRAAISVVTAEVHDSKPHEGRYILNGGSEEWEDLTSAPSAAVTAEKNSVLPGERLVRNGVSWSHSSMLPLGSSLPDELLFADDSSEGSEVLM
Assay: MerTk degradation in Jurkat cells (Western blot)
Assay type: cell-based
Conditions: Jurkat, 4 h, 0.001-1 μM, 4 hour-incubation at 37° C., read-out: Jurkat Max % MerTK Degradation
In short: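 MerTK degradation was read by near-infrared Western blot, normalized to actin, in BCA-quantified lysates of Jurkat cells exposed to 0.001-1 μM compound for 4 h at 37 °C.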

| Dmax | SMILES |
| --- | --- |
| > 50% | Cn1c(=O)n([C@H]2CCC(=O)NC2=O)c2ccc(CCCC3CN(C4CCN(Cc5ccc(-c6cn([C@H]7CC[C@H](O)CC7)c7nc(NCCC(F)(F)F)ncc67)cc5)CC4)C3)cc21 [I-156, 3-[3-methyl-2-oxo-5-[3-(1-[1-[(4-[7-[trans-4-hydroxycyclohexy1]-2-[(3,3,3-trifluoropropyl)amino]pyrrolo[2,3-d]pyrimidin-5-y1]phenyl)methyl]piperidin-4-yl]azetidin-3-yl)propyl]-1,3-benzodiazol-1-yl]piperidine-2,6-dione; formic acid] |
| > 50% | Cn1c(=O)n([C@H]2CCC(=O)NC2=O)c2ccc(COC3CCN(C4CCN(Cc5ccc(-c6cn([C@H]7CC[C@H](O)CC7)c7nc(NCCC(F)(F)F)ncc67)cc5)CC4)CC3)cc21 [I-157, 3-[3-methyl-2-oxo-5-[([1-[(4-[7-[trans-4-hydroxycyclohexy1]-2-[(3,3,3-trifluoropropyl)amino]pyrrolo[2,3-d]pyrimidin-5-yl]phenyl)methyl]-[1,4-bipiperidin]-4-yl]oxy)methyl]-1,3-benzodiazol-1-y1]piperidine-2,6-dione; formic acid] |
| > 50% | Cn1c(=O)n(C2CCC(=O)NC2=O)c2ccc(CN3CCN([C@H]4CCN(Cc5ccc(-c6cn([C@H]7CC[C@H](O)CC7)c7nc(NCCC(F)(F)F)ncc67)cc5)C4)CC3)cc21 (stereo partly drawn) [I-158, 3-[3-methyl-2-oxo-5-([4-[(3R)-1-[(4-[7-[trans-4-hydroxycyclohexy1]-2-[(3,3,3-trifluoropropyl)amino]pyrrolo[2,3-d]pyrimidin-5-y1]phenyl)methyl]pyrrolidin-3-y1]piperazin-1-yl]methyl)-1,3-benzodiazol-1-yl]piperidine-2,6-dione] |
| > 50% | Cn1c(=O)n([C@H]2CCC(=O)NC2=O)c2cccc(CN3CCC(CC4CCN(Cc5ccc(-c6cn([C@H]7CC[C@H](O)CC7)c7nc(NCCC(F)(F)F)ncc67)cc5)CC4)CC3)c21 [I-159, 3-(3-methyl-2-oxo-4-[[4-([1-[(4-[7-[trans-4-hydroxycyclohexy1]-2-[(3,3,3-trifluoropropyl)amino]pyrrolo[2,3-d]pyrimidin-5-y1]phenyl)methyl]piperidin-4-y1]methyl)piperidin-1-yl]methyl]-1,3-benzodiazol-1-yl)piperidine-2,6-dione] |
| > 50% | Cn1c(=O)n(C2CCC(=O)NC2=O)c2ccc(CCCOCC(F)CN3CCN(Cc4ccc(-c5cn([C@H]6CC[C@H](O)CC6)c6nc(NCCC(F)(F)F)ncc56)cc4)CC3)cc21 (stereo partly drawn) [I-160, 3-[5-[3-(2-fluoro-3-[4-[(4-[7-[trans-4-hydroxycyclohexy1]-2-[(3,3,3-trifluoropropyl)amino]pyrrolo[2,3-d]pyrimidin-5-yl]phenyl)methyl]piperazin-1-yl]propoxy)propyl]-3-methyl-2-oxo-1,3-benzodiazol-1-yl]piperidine-2,6-dione] |
| < 20% | Cc1ncsc1-c1ccc(CNC(=O)[C@@H]2C[C@@H](O)CN2C(=O)[C@@H](NC(=O)CCCCCN2CCN(Cc3ccc(-c4cn([C@H]5CC[C@H](O)CC5)c5nc(NCCC(F)(F)F)ncc45)cc3)CC2)C(C)(C)C)cc1 [I-161, (2S,4R)-1-[(2S)-3,3-dimethyl-2-(6-[4-[(4-[7-[trans-4-hydroxycyclohexyl]-2-[(3,3,3-trifluoropropyl)amino]pyrrolo[2,3-d]pyrimidin-5-yl]phenyl)methyl]piperazin-1-yl]hexanamido)butanoyl]-4-hydroxy-N-[[4-(4-methyl-1,3-thiazol-5-yl)phenyl]methyl]pyrrolidine-2-carboxamide] |
| < 20% | Cc1ncsc1-c1ccc(CNC(=O)[C@@H]2C[C@@H](O)CN2C(=O)[C@@H](NC(=O)CCCCCCN2CCN(Cc3ccc(-c4cn([C@H]5CC[C@H](O)CC5)c5nc(NCCC(F)(F)F)ncc45)cc3)CC2)C(C)(C)C)cc1 [I-162, (2S,4R)-1-[(2S)-3,3-dimethyl-2-(7-[4-[(4-[7-[trans-4-hydroxycyclohexyl]-2-[(3,3,3-trifluoropropyl)amino]pyrrolo[2,3-d]pyrimidin-5-yl]phenyl)methyl]piperazin-1-yl]heptanamido)butanoyl]-4-hydroxy-N-[[4-(4-methyl-1,3-thiazol-5-yl)phenyl]methyl]pyrrolidine-2-carboxamide] |
| > 50% | Cn1c(=O)n([C@H]2CCC(=O)NC2=O)c2ccc(CCCOCCOC3CCN(C[C@H]4CC[C@H](c5cn([C@H]6CC[C@H](O)CC6)c6nc(NCCC(F)(F)F)ncc65)CC4)CC3)cc21 [I-163] |
| > 50% | Cn1c(=O)n([C@H]2CCC(=O)NC2=O)c2ccc(CCCOCCOCCC3CCN(C[C@H]4CC[C@H](c5cn([C@H]6CC[C@H](O)CC6)c6nc(NCCC(F)(F)F)ncc65)CC4)CC3)cc21 [I-164, 3-[3-methyl-2-oxo-5-(3-[2-[2-(1-[[trans-4-[7-[trans-4-hydroxycyclohexyl]-2-[(3,3,3-trifluoropropyl)amino]pyrrolo[2,3-d]pyrimidin-5-yl]cyclohexyl]methyl]piperidin-4-yl)ethoxy]ethoxy]propyl)-1,3-benzodiazol-1-y1]piperidine-2,6-dione] |
| < 20% | Cc1ncsc1-c1ccc(CNC(=O)[C@@H]2C[C@@H](O)CN2C(=O)[C@@H](NC(=O)COCCOCCN2CCN(Cc3ccc(-c4cn([C@H]5CC[C@H](O)CC5)c5nc(NCCC(F)(F)F)ncc45)cc3)CC2)C(C)(C)C)cc1 [I-165, (2S,4R)-1-[(2S)-3,3-dimethyl-2-[2-[2-(2-[4-[(4-[7-[trans-4-hydroxycyclohexyl]-2-[(3,3,3-trifluoropropyl)amino]pyrrolo[2,3-d]pyrimidin-5-yl]phenyl)methyl]piperazin-1-yl]ethoxy)ethoxy]acetamido]butanoyl]-4-hydroxy-N-[[4-(4-methyl-1,3-thiazol-5-yl)phenyl]methyl]pyrrolidine-2-carboxamide] |
| > 50% | Cc1ncsc1-c1ccc(CNC(=O)[C@@H]2C[C@@H](O)CN2C(=O)[C@@H](NC(=O)COCCOCCOCCN2CCN(Cc3ccc(-c4cn([C@H]5CC[C@H](O)CC5)c5nc(NCCC(F)(F)F)ncc45)cc3)CC2)C(C)(C)C)cc1 [I-166, (2S,4R)-1-[(2S)-3,3-dimethyl-2-(2-[2-[2-(2-[4-[(4-[7-[trans-4-hydroxycyclohexyl]-2-[(3,3,3-trifluoropropyl)amino]pyrrolo[2,3-d]pyrimidin-5-yl]phenyl)methyl]piperazin-1-yl]ethoxy)ethoxy]ethoxy]acetamido)butanoyl]-4-hydroxy-N-[[4-(4-methyl-1,3-thiazol-5-yl)phenyl]methyl]pyrrolidine-2-carboxamide] |
| < 20% | CN(C)c1cccc2c(S(=O)(=O)Nc3cccc(-c4cnc(NCCOCCN5CCN(Cc6ccc(-c7cn([C@H]8CC[C@H](O)CC8)c8nc(NCCC(F)(F)F)ncc78)cc6)CC5)nc4N4CCC(c5ccccc5)C4C(=O)O)c3)cccc12 (stereo partly drawn) [I-167, 1-(5-[3-[5-(Dimethylamino)naphthalene-1-sulfonamido]phenyl]-2-[[2-(2-[4-[(4-[7-[trans-4-hydroxycyclohexyl]-2-[(3,3,3-trifluoropropyl)amino]pyrrolo[2,3-d]pyrimidin-5-yl]phenyl)methyl]piperazin-1-yl]ethoxy)ethyl]amino]pyrimidin-4-yl)-3-phenylpyrrolidine-2-carboxylic acid] |
| < 20% | CN(C)c1cccc2c(S(=O)(=O)Nc3cccc(-c4cnc(NCCOCCOCCN5CCN(Cc6ccc(-c7cn([C@H]8CC[C@H](O)CC8)c8nc(NCCC(F)(F)F)ncc78)cc6)CC5)nc4N4CCC(c5ccccc5)C4C(=O)O)c3)cccc12 (stereo partly drawn) [I-168, 1-(5-[3-[5-(Dimethylamino)naphthalene-1-sulfonamido]phenyl]-2-([2-[2-(2-[4-[(4-[7-[trans-4-hydroxycyclohexyl]-2-[(3,3,3-trifluoropropyl)amino]pyrrolo[2,3-d]pyrimidin-5-yl]phenyl)methyl]piperazin-1-yl]ethoxy)ethoxy]ethyl]amino)pyrimidin-4-yl)-3-phenylpyrrolidine-2-carboxylic acid] |
| < 20% | CN(C)c1cccc2c(S(=O)(=O)Nc3cccc(-c4cnc(NCCOCCOCCOCCN5CCN(Cc6ccc(-c7cn([C@H]8CC[C@H](O)CC8)c8nc(NCCC(F)(F)F)ncc78)cc6)CC5)nc4N4CCC(c5ccccc5)C4C(=O)O)c3)cccc12 (stereo partly drawn) [I-169, 1-(5-[3-[5-(dimethylamino)naphthalene-1-sulfonamido]phenyl]-2-(12-[4-[(4-[7-[trans-4-hydroxycyclohexyl]-2-[(3,3,3-trifluoropropyl)amino]pyrrolo[2,3-d]pyrimidin-5-yl]phenyl)methyl]piperazin-1-yl]-4,7,10-trioxa-1-azadodecan-1-yl)pyrimidin-4-yl)-3-phenylpyrrolidine-2-carboxylic acid] |
